From patent publication US20040235813A1, “Compounds that inhibit hsp90 and stimulate hsp70 and hsp40, useful in the prevention or treatment of diseases associated with protein aggregation and amyloid formation” (priority 2001, published 2004)

Key:
Hsp40 = test: Immunoblot of Hsp40 expression in GA treated COS-1 cells expressing EGFP-HD72Q; assay type: cell-based; details: GA 360 nM, 40 hours
Method: (§1) Equal amounts (10 μg) of protein were loaded. […] Aggregates were detected using the filter retardation assay.
(§2) Control cells were treated with DMSO.
(§3) Protein concentration was determined by the BioRad assay.

Hsp70 = test: Immunoblot of Hsp70 expression in GA treated COS-1 cells expressing EGFP-HD72Q; assay type: cell-based; details: GA 360 nM, 40 hours
Method: as §1, §2, §3

EGFP-HD72Q = test: Immunoblot of EGFP-HD72Q expression in GA treated COS-1 cells; assay type: cell-based; details: GA 18-360 nM, 40 hours
Method: (§4) (A) Expression of EGFP-HD72Q, Hsp40, Hsp70, and Hsp90 in COS-1 cells. […] Equal amounts (10 μg) of protein were loaded. […] Aggregates were detected using the filter retardation assay. Filters were probed with the HD1 antibody and signal intensities quantified using a Fuji-imager (LAS 2000). […] Values shown are the mean of three independent experiments (±S.E).
(§5) A further linker was introduced in order to generate the appropriate reading frame, resulting in pTL1-HA3. Hsp70-pTLHA3 was generated by PCR amplification of the human Hsp70A gene and cloning into pTL1-HA3. Hdj-1-pTL10Flag was generated by ligating the human HDJ-1 gene, derived from pQE9-His-Hsp40 (33), into pTL10SFlag (a kind gift of D. Devys and J.-L. Mandel). pEGFP-HD72Q was generated by PCR amplification of the exon 1 of human HD from patient DNA and cloning into pEGFP-C1 (Clontech). All constructs were verified by sequencing.
Control cells were treated with DMSO. […]
SDS-PAGE and Western blot analysis was performed according to standard procedures. […] Captured aggregates were detected by incubation with HD1 IgG (diluted 1:5000) followed by incubation with alkaline phosphatase conjugated anti-rabbit IgG and the fluorescent substrate AttoPhos. Quantitation of the captured aggregates was performed using a Fuji-imager (LAS 2000) and AIDA 1.0 image analysis software.

[1] = system: SDS-insoluble EGFP-HD72Q protein aggregates; test: Filter retardation assay for SDS-insoluble EGFP-HD72Q protein aggregates in COS-1 cells; assay type: cell-based, monkey; details: filtration assay
Method: as §4, §5
Control cells were treated with DMSO. As alternative transfection method, the Lipofectamine Plus Reagent (GibcoBRL Life Technologies) was used according to the manufacturer's instruction.
SDS-PAGE and Western blot analysis was performed according to standard procedures. For the filter retardation assay (27,30) protein samples (1-20 μg) were heated at 98° C. for 3 min in 2% SDS and 50 mM DTT and filtered through a 0.2 μm cellulose acetate membrane (Schleicher & Schuell) using a BRL dot-blot filtration unit. Captured aggregates were detected by incubation with HD1 IgG (diluted 1:5000) followed by incubation with alkaline phosphatase conjugated anti-rabbit IgG and the fluorescent substrate AttoPhos. Quantitation of the captured aggregates was performed using a Fuji-imager (LAS 2000) and AIDA 1.0 image analysis software.
Using this assay SDS-resistant huntingtin protein aggregates can be immunologically detected and quantified.

## COC1=C2C[C@@H](C)C[C@H](OC)[C@H](O)[C@@H](C)/C=C(\C)[C@H](OC(N)=O)[C@@H](OC)/C=C\C=C(/C)C(=O)NC(=CC1=O)C2=O [GA, Geldanamycin]
Hsp40
  up-regulation of Hsp40 compared to the untreated controls: 3-4 fold
Hsp70
  up-regulation of Hsp70 compared to the untreated controls: 3-4 fold
EGFP-HD72Q
  effect on EGFP-HD72Q expression: no effect
[1]; GA 18 nM
  reduction of the amount of insoluble protein aggregates: approximately 30%
[1]; GA 90 nM
  reduction of the amount of insoluble protein aggregates: ~60%
[1]; GA 180 nM
  reduction of the amount of insoluble protein aggregates: ~70%
[1]; GA 360 nM
  reduction of the amount of insoluble protein aggregates: ~80%
